{"source": "patent US20230085307A1", "about": "“PYRIDAZINONE COMPOUND AND HERBICIDE” (NISSAN CHEMICAL CORPORATION, priority 2019, published 2023)", "key": {"velvetleaf [1]": {"tested_on": "velvetleaf", "test": "Test Example 5: herbicidal effect by foliage application, plastic box (Table 20, symbol M)", "assay_type": "in vivo, velvetleaf (Abutilon theophrasti)", "settings": "foliage application, 320 g/ha, 3 weeks after application", "method_in_brief": "(§1)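 Plants sown in sterilized diluvial soil and grown 14 days in a greenhouse at 25° C to 30° C, then sprayed on the foliage with the compound's emulsion diluted in water to a predetermined herbicide amount. Injury to weeds and crops scored three weeks after application on a visual rating scale.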"}, "rice flat sedge": {"tested_on": "rice flat sedge", "test": "Test Example 3: herbicidal effect by foliage application, Wagner pot (Table 18, symbol E)", "assay_type": "in vivo, rice flat sedge (Cyperus iria)", "settings": "320 g/ha", "method_in_brief": "(§2)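 Plants were sown in alluvial soil held under 0.1–0.5 cm standing water and grown 14 days in a greenhouse at 25–30 °C. An emulsifiable formulation, water-diluted to the set dose, was then sprayed onto the foliage, and effects were scored three weeks later using previously defined criteria.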"}, "persian speedwell [2]": {"tested_on": "persian speedwell", "test": "Test Example 4: herbicidal effect by soil treatment (Table 19, symbol R)", "assay_type": "in vivo, Persian speedwell (Veronica persica)", "settings": "AAH 320 g/ha", "method_in_brief": "(§3)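 Seeds were sown in sterilized diluvial soil and covered with about 1.5 cm of soil. An emulsion formulation diluted with water to a predetermined herbicide amount was sprayed evenly onto the soil surface. Plants grew in a greenhouse at 25° C. to 30° C., and the effect was scored three weeks after application using criteria from an earlier test.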"}, "barnyard grass [3]": {"tested_on": "barnyard grass", "test": "Test Example 5: herbicidal effect by foliage application, plastic box (Table 20, symbol H)", "assay_type": "in vivo, barnyard grass (Echinochloa crus-galli)", "settings": "foliage application, 320 g/ha, 3 weeks after application", "method_in_brief": "as §1"}, "redroot pigweed": {"tested_on": "redroot pigweed", "test": "Test Example 4: herbicidal effect by soil treatment (Table 19, symbol N)", "assay_type": "in vivo, redroot pigweed (Amaranthus retroflexus)", "settings": "AAH 320 g/ha", "method_in_brief": "as §3"}, "Italian ryegrass [4]": {"tested_on": "Italian ryegrass", "test": "Test Example 5: herbicidal effect by foliage application, plastic box (Table 20, symbol K)", "assay_type": "in vivo, Italian ryegrass (Lolium multiflorum)", "settings": "foliage application, 320 g/ha, 3 weeks after application", "method_in_brief": "as §1"}, "persian speedwell [5]": {"tested_on": "persian speedwell", "test": "Test Example 5: herbicidal effect by foliage application, plastic box (Table 20, symbol R)", "assay_type": "in vivo, Persian speedwell (Veronica persica)", "settings": "foliage application, 320 g/ha, 3 weeks after application", "method_in_brief": "as §1"}, "southern crabgrass [6]": {"tested_on": "southern crabgrass", "test": "Test Example 5: herbicidal effect by foliage application, plastic box (Table 20, symbol F)", "assay_type": "in vivo, southern crabgrass (Digitaria ciliaris)", "settings": "foliage application, 320 g/ha, 3 weeks after application", "method_in_brief": "as §1"}, "lambsquarters [7]": {"tested_on": "lambsquarters", "test": "Test Example 4: herbicidal effect by soil treatment (Table 19, symbol O)", "assay_type": "in vivo, lambsquarters (Chenopodium album)", "settings": "AAH 320 g/ha", "method_in_brief": "as §3"}, "chickweed": {"tested_on": "chickweed", "test": "Test Example 4: herbicidal effect by soil treatment (Table 19, symbol P)", "assay_type": "in vivo, common chickweed (Stellaria media)", "settings": "AAH 320 g/ha", "method_in_brief": "as §3"}, "blackgrass [8]": {"tested_on": "blackgrass", "test": "Test Example 4: herbicidal effect by soil treatment (Table 19, symbol J)", "assay_type": "in vivo, blackgrass (Alopecurus myosuroides)", "settings": "AAH 320 g/ha", "method_in_brief": "as §3"}, "Italian ryegrass [9]": {"tested_on": "Italian ryegrass", "test": "Test Example 4: herbicidal effect by soil treatment (Table 19, symbol K)", "assay_type": "in vivo, Italian ryegrass (Lolium multiflorum)", "settings": "AAH 320 g/ha", "method_in_brief": "as §3"}, "windgrass [10]": {"tested_on": "windgrass", "test": "Test Example 4: herbicidal effect by soil treatment (Table 19, symbol L)", "assay_type": "in vivo, windgrass (Apera spica-venti)", "settings": "AAH 320 g/ha", "method_in_brief": "as §3"}, "barnyard grass [11]": {"tested_on": "barnyard grass", "test": "Test Example 3: herbicidal effect by foliage application, Wagner pot (Table 18, symbol H)", "assay_type": "in vivo, barnyard grass (Echinochloa crus-galli)", "settings": "320 g/ha", "method_in_brief": "as §2"}, "southern crabgrass [12]": {"tested_on": "southern crabgrass", "test": "Test Example 4: herbicidal effect by soil treatment (Table 19, symbol F)", "assay_type": "in vivo, southern crabgrass (Digitaria ciliaris)", "settings": "AAH 320 g/ha", "method_in_brief": "as §3"}, "lambsquarters [13]": {"tested_on": "lambsquarters", "test": "Test Example 5: herbicidal effect by foliage application, plastic box (Table 20, symbol O)", "assay_type": "in vivo, lambsquarters (Chenopodium album)", "settings": "foliage application, 320 g/ha, 3 weeks after application", "method_in_brief": "as §1"}, "blackgrass [14]": {"tested_on": "blackgrass", "test": "Test Example 5: herbicidal effect by foliage application, plastic box (Table 20, symbol J)", "assay_type": "in vivo, blackgrass (Alopecurus myosuroides)", "settings": "foliage application, 320 g/ha, 3 weeks after application", "method_in_brief": "as §1"}, "windgrass [15]": {"tested_on": "windgrass", "test": "Test Example 5: herbicidal effect by foliage application, plastic box (Table 20, symbol L)", "assay_type": "in vivo, windgrass (Apera spica-venti)", "settings": "foliage application, 320 g/ha, 3 weeks after application", "method_in_brief": "as §1"}, "wild oat [16]": {"tested_on": "wild oat", "test": "Test Example 4: herbicidal effect by soil treatment (Table 19, symbol I)", "assay_type": "in vivo, wild oat (Avena fatua)", "settings": "AAH 320 g/ha", "method_in_brief": "as §3"}, "velvetleaf [17]": {"tested_on": "velvetleaf", "test": "Test Example 4: herbicidal effect by soil treatment (Table 19, symbol M)", "assay_type": "in vivo, velvetleaf (Abutilon theophrasti)", "settings": "AAH 320 g/ha", "method_in_brief": "as §3"}, "Chinese sprangletop": {"tested_on": "Chinese sprangletop", "test": "Test Example 3: herbicidal effect by foliage application, Wagner pot (Table 18, symbol D)", "assay_type": "in vivo, chinese sprangletop (Leptochloa chinensis)", "settings": "320 g/ha", "method_in_brief": "as §2"}, "barnyard grass [18]": {"tested_on": "barnyard grass", "test": "Test Example 4: herbicidal effect by soil treatment (Table 19, symbol H)", "assay_type": "in vivo, barnyard grass (Echinochloa crus-galli)", "settings": "AAH 320 g/ha", "method_in_brief": "as §3"}, "green foxtail [19]": {"tested_on": "green foxtail", "test": "Test Example 5: herbicidal effect by foliage application, plastic box (Table 20, symbol G)", "assay_type": "in vivo, green foxtail (Setaria viridis)", "settings": "foliage application, 320 g/ha, 3 weeks after application", "method_in_brief": "as §1"}, "wild oat [20]": {"tested_on": "wild oat", "test": "Test Example 5: herbicidal effect by foliage application, plastic box (Table 20, symbol I)", "assay_type": "in vivo, wild oat (Avena fatua)", "settings": "foliage application, 320 g/ha, 3 weeks after application", "method_in_brief": "as §1"}, "green foxtail [21]": {"tested_on": "green foxtail", "test": "Test Example 4: herbicidal effect by soil treatment (Table 19, symbol G)", "assay_type": "in vivo, green foxtail (Setaria viridis)", "settings": "AAH 320 g/ha", "method_in_brief": "as §3"}}, "data": [{"smiles": "Cc1nn(C)c(=O)c(-c2c(-c3ccc(O)cc3)sc3ccccc23)c1O", "note": "[1-200]", "values": [{"measurement": "effect on velvetleaf (M)", "setting": "velvetleaf [1]", "value": "5 (Herbicidal rate of 90% or more (almost completely withered))"}, {"measurement": "herbicidal effect on E (rice flat sedge), rating 0-5", "setting": "rice flat sedge", "value": "3 (Herbicidal rate of 40% or more and less than 70%)"}, {"measurement": "R: persian speedwell, herbicidal effect rating", "setting": "persian speedwell [2]", "value": "3 (Herbicidal rate of 40% or more and less than 70%)"}, {"measurement": "effect on barnyard grass (H)", "setting": "barnyard grass [3]", "value": "4 (Herbicidal rate of 70% or more and less than 90%)"}, {"measurement": "N: redroot pigweed, herbicidal effect rating", "setting": "redroot pigweed", "value": "0 (Herbicidal rate of 5% or less (almost no effect))"}, {"measurement": "effect on Italian ryegrass (K)", "setting": "Italian ryegrass [4]", "value": "1 (Herbicidal rate of 5% or more and less than 20%)"}, {"measurement": "effect on persian speedwell (R)", "setting": "persian speedwell [5]", "value": "5 (Herbicidal rate of 90% or more (almost completely withered))"}, {"measurement": "effect on southern crabgrass (F)", "setting": "southern crabgrass [6]", "value": "3 (Herbicidal rate of 40% or more and less than 70%)"}, {"measurement": "O: lambsquarters, herbicidal effect rating", "setting": "lambsquarters [7]", "value": "0 (Herbicidal rate of 5% or less (almost no effect))"}, {"measurement": "P: chickweed, herbicidal effect rating", "setting": "chickweed", "value": "1 (Herbicidal rate of 5% or more and less than 20%)"}, {"measurement": "J: blackgrass, herbicidal effect rating", "setting": "blackgrass [8]", "value": "0 (Herbicidal rate of 5% or less (almost no effect))"}, {"measurement": "K: Italian ryegrass, herbicidal effect rating", "setting": "Italian ryegrass [9]", "value": "0 (Herbicidal rate of 5% or less (almost no effect))"}, {"measurement": "L: windgrass, herbicidal effect rating", "setting": "windgrass [10]", "value": "0 (Herbicidal rate of 5% or less (almost no effect))"}, {"measurement": "herbicidal effect on H (barnyard grass), rating 0-5", "setting": "barnyard grass [11]", "value": "4 (Herbicidal rate of 70% or more and less than 90%)"}, {"measurement": "F: southern crabgrass, herbicidal effect rating", "setting": "southern crabgrass [12]", "value": "0 (Herbicidal rate of 5% or less (almost no effect))"}, {"measurement": "effect on lambsquarters (O)", "setting": "lambsquarters [13]", "value": "4 (Herbicidal rate of 70% or more and less than 90%)"}, {"measurement": "effect on blackgrass (J)", "setting": "blackgrass [14]", "value": "0 (Herbicidal rate of 5% or less (almost no effect))"}, {"measurement": "effect on windgrass (L)", "setting": "windgrass [15]", "value": "0 (Herbicidal rate of 5% or less (almost no effect))"}, {"measurement": "I: wild oat, herbicidal effect rating", "setting": "wild oat [16]", "value": "0 (Herbicidal rate of 5% or less (almost no effect))"}, {"measurement": "M: velvetleaf, herbicidal effect rating", "setting": "velvetleaf [17]", "value": "0 (Herbicidal rate of 5% or less (almost no effect))"}, {"measurement": "herbicidal effect on D (Chinese sprangletop), rating 0-5", "setting": "Chinese sprangletop", "value": "3 (Herbicidal rate of 40% or more and less than 70%)"}, {"measurement": "H: barnyard grass, herbicidal effect rating", "setting": "barnyard grass [18]", "value": "0 (Herbicidal rate of 5% or less (almost no effect))"}, {"measurement": "effect on green foxtail (G)", "setting": "green foxtail [19]", "value": "3 (Herbicidal rate of 40% or more and less than 70%)"}, {"measurement": "effect on wild oat (I)", "setting": "wild oat [20]", "value": "0 (Herbicidal rate of 5% or less (almost no effect))"}, {"measurement": "G: green foxtail, herbicidal effect rating", "setting": "green foxtail [21]", "value": "0 (Herbicidal rate of 5% or less (almost no effect))"}]}]}
